From patent US10407466B2 (Apellis Pharmaceuticals, Inc., priority 2005, dated 2019)
Where two headings read alike, the source gives them in different places. Marks after values point to notes of the source that are not given here. Each block holds one compound with its values, some of them ahead of it. Bridge positions count the residues as written; N and C are the ends. Square brackets hold non-standard residues; d marks the D form. 2Nal = N[C@@H](Cc1ccc2ccccc2c1)C(=O)O

Key:
[1] = system: choroidal neovascularization (CNV) in C57BL/6 mice; test: Laser-induced CNV in a mouse model, intravitreal injection; assay type: in vivo
From the text: C57BL/6 mice (The Jackson Laboratory) were anesthetized with a mixture of ketamine/xylazine (8:1) and the pupils were dilated with a single drop of 1% tropicamide. Krypton red laser photocoagulation (50-μm spot size, 0.05 s duration, 250 mW) will be used to generate laser spots in surrounding the optic nerve by using a hand-held coverslip as a contact lens. Formation of a bubble at the laser spot indicated rupture of Bruch's membrane. Multiple laser spots were generated in each eye.
Different groups of mice were injected with different quantities of this molecule or of mouse albumin (as a control) to determine the effect of dosage on the efficacy and toxicity of VCP. Briefly, after anesthesia and dilation of the pupil, the anterior chamber was entered via the limbus with a 28-gauge needle to decompress the eye. Under an operating microscope, which allows visualization of the retina, a 32-gauge (blunt) needle was passed through a scleral incision, just behind the limbus, into the vitreous cavity.
Seven days after CNV induction incidence of CNV was determined. Briefly, the mice were perfused with a FITC-dextran (Sigma-Aldrich) solution just prior to sacrifice. After the eyes were excised and fixed for 1 h in 10% phosphate-buffered formalin, RPE-choroid-scleral flat mounts were prepared as follows. The cornea and the lens were removed and the neurosensory retina carefully dissected from the eyecup. Five radial cuts were from the edge of the eyecup to the equator; the sclera-choroidretinal pigment epithelium (RPE) complex was flat-mounted, with the sclera facing down, on a glass slide in Aquamount. The flat mounts were stained with an anti-elastin specific monoclonal antibody (Sigma-Aldrich) and then with a CY3-conjugated secondary antibody (Sigma-Aldrich) at a suitable concentration, e.g., at a 1/200 dilution of a 1.0 mg/ml stock solution. Mounts were observed under confocal microscopy (LSM510, Zeiss). The prominent neovascular growth stained green whereas the underlying elastin in the Bruch's membrane stained red within a laser spot. Images were analyzed with the image analysis software AxioVision (Zeiss). The amount of CNV was determined by measuring the total green-fluorescent surface area in each picture. A mean green-fluorescent area was obtained for the various groups and compared using student t-test for comparisons between groups and ANOVA for comparison among multiple groups. […] Deposition of a variety of different complement components is also measured using immunological techniques and/or RT-PCR.
Seven days after CNV induction, incidence of CNV was determined. Just prior to sacrifice, the mice were perfused with a FITC-dextran (Sigma-Aldrich) solution. After the eyes were excised and fixed in 10% phosphate-buffered formalin, RPE-choroid-scleral flat mounts were prepared and stained with an anti-elastin specific monoclonal antibody (Sigma-Aldrich) and then with a CY3-conjugated secondary antibody (Sigma-Aldrich). Mounts were observed under confocal microscopy (LSM510, Zeiss). The prominent neovascular growth stained green whereas the underlying elastin in the Bruch's membrane stained red within a laser spot. […] Images were analyzed with the image analysis software AxioVision (Zeiss). The amount of CNV was determined by measuring the total green-fluorescent surface area in each picture. A mean green-fluorescent area was obtained for the various groups and compared using student t-test for comparisons between groups and ANOVA for comparison among multiple groups. Results are described in Table 2 and in the graph in FIG. 4.

non-primate C3 = conditions: reported; cited from earlier work
[2] = in vivo; cited from earlier work
[3] = Half-life in vitro in the vitreous; assay type: in vitro ADME
Description: The inventors' calculations establish, for the first time, the feasibility of substantially inhibiting C3 activation at levels at or above those expected to be present in the vitreous of a subject with wet ARMD by sustained intravitreal delivery of amounts as little as 5 μg/day of a therapeutic agent, which amounts may, according to the invention, be delivered by intravitreal implant technology over prolonged periods of time (as described further below). The inventors' calculations also establish, for the first time, the feasibility of substantially inhibiting C3 activation at levels at or above those expected to be present in the vitreous of a subject with dry ARMD by sustained intravitreal delivery of amounts as low as 2 μg/day of a therapeutic agent, which amounts may be delivered over prolonged periods of time by intravitreal implant technology according to the present invention.

Compound: CC[C@H](C)[C@H](N)C(=O)N[C@H]1CSSC[C@@H](C(=O)N[C@H](C(N)=O)[C@@H](C)O)NC(=O)[C@H](CCCN=C(N)N)NC(=O)[C@H](Cc2cnc[nH]2)NC(=O)[C@H](Cc2cnc[nH]2)NC(=O)CNC(=O)[C@H](Cc2c[nH]c3ccccc23)NC(=O)[C@H](CC(=O)O)NC(=O)[C@H](CCC(N)=O)NC(=O)[C@H](C(C)C)NC(=O)[C@H](C(C)C)NC1=O [compstatin]
- Mean Difference (I-J), FldAreaGreen ([1]; I = Compstatin 30 ug, J = VCP 30 ug, day 7): −317.4
- Mean Difference (I-J), FldAreaGreen ([1]; I = Mouse Albumin Control, J = test agent 30 ug/eye, day 7): 3286*
- Mean Difference (I-J), FldAreaGreen ([1]; I = No-treatment control, J = test agent 30 ug/eye, green-fluorescent CNV area, day 7, Tamhane): 5195*
- Mean Difference (I-J), FldAreaGreen ([1]; I = test agent 30 ug/eye, J = Mouse Albumin Control, day 7): −3286*
- Mean Difference (I-J), FldAreaGreen ([1]; I = test agent 30 ug/eye, J = No-treatment control, day 7): −5195*
- Mean Difference (I-J), FldAreaGreen ([1]; I = test agent 30 ug/eye, J = VCP 10 ug, day 7): −5862*
- affinity for non-primate C3 compared with human or non-human primate C3 (non-primate C3): lower
- half-life [2]: < 0.25 h

Compound: Ac-ICV(2-Nal)QDWGAHRCT-CONH2 (Ac-ICV[2Nal]QDWGAHRCT-NH2; disulfide 2-12 (inferred)) [Ac-V4(2-Nal)/H9A]
- mean area of CNV relative to either no treatment or administration of albumin ([1]; 30 μg intravitreal, 24 hrs after laser induction, seven days after CNV induction): statistically significant reduction
- effectiveness compared with VCP on a μg basis ([1]; 30 μg/eye, difference not statistically significant at these sample sizes): somewhat more effective than VCP
- development of CNV in an animal model ([1]; summary of Example 1): effective in significantly inhibiting the development of CNV

- half-life [3]: ~6.9 h
Compound: CC[C@H](C)[C@H](NC(C)=O)C(=O)N[C@H]1CSSC[C@@H](C(=O)N[C@H](C(N)=O)[C@@H](C)O)NC(=O)[C@H](CCCNC(=N)N)NC(=O)[C@H](Cc2cnc[nH]2)NC(=O)[C@H](C)NC(=O)CNC(=O)[C@H](Cc2c[nH]c3ccccc23)NC(=O)[C@H](CC(=O)O)NC(=O)[C@H](CCC(N)=O)NC(=O)[C@H](Cc2cn(C)c3ccccc23)NC(=O)[C@H](C(C)C)NC1=O [Ac-V4(1-MeW)/H9A]
